Test systems include 786-0; ACHN; CAKI-1; DU-145; EKVX; HCT-15; KM12; MCF7; MDA-MB-231; MDA-N; NCI-H460; NCI-H522; OVCAR-8; SK-MEL-28; SNB-19; TK-10; UACC-257; UACC-62; RPMI-8226; RXF 393.
What all share (assay): NCI tumour cell line growth inhibition, 48 h

Eleven compounds from ChEMBL document CHEMBL1201862, “PubChem BioAssay data set” (2004) can be followed below.

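Test compounds were applied to cells in 96-well plates for 48 hours at 5 doses. The concentration for 50% growth inhibition is given as GI50.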 Active and inactive are the calls of the source. Cut-off read from the data, not from the text of the source: active = GI50 up to about 1.1 µM and inactive = higher.

Turning to `CC(C)(C)C(=O)c1c(O)c2ccccc2c2ccccc2c1=O`, the GI50 was > 100 µM (inactive) in the experiment with 786-0; > 100 µM (inactive) in the experiment on ACHN; > 100 µM (inactive) with CAKI-1; > 100 µM (inactive) with DU-145; > 100 µM (inactive) with EKVX; 64.4 µM with HCT-15. Further, the GI50 is 79.3 µM (inactive) with KM12; > 100 µM (inactive) with MCF7; > 100 µM (inactive) in the experiment on MDA-MB-231; > 100 µM (inactive) in the experiment with MDA-N; > 100 µM (inactive) in the experiment with NCI-H460; 23.7 µM (inactive) with NCI-H522. Besides, the GI50 in the experiment with OVCAR-8 was 82.6 µM (inactive); in the experiment on SK-MEL-28, 58.7 µM (inactive); in the experiment on SNB-19 it was > 100 µM (inactive); in the experiment on TK-10, 97.5 µM (inactive); in the experiment on UACC-257, > 100 µM (inactive); in the experiment with UACC-62, 76.4 µM (inactive).
With `Cc1ccc(/C(=C\C(=O)C(=O)NC23CC4CC(CC(C4)C2)C3)Sc2ccccc2)cc1`, the GI50 in the experiment with 786-0 was > 10 µM (inactive); in the experiment on ACHN it was > 10 µM (inactive); with CAKI-1, > 10 µM (inactive); in the experiment with DU-145, > 10 µM (inactive); in the experiment with EKVX it was > 10 µM (inactive); in the experiment on HCT-15, > 10 µM. Further, the GI50 in the experiment on KM12, with MCF7, with MDA-MB-231, in the experiment on MDA-N, in the experiment with NCI-H460 and with NCI-H522 was > 10 µM (inactive) in each case. Besides, the GI50 in the experiment on OVCAR-8 was > 10 µM (inactive); in the experiment on RPMI-8226, 9.02 µM (inactive); with RXF 393, > 10 µM (inactive); in the experiment with SK-MEL-28 it was > 10 µM (inactive); in the experiment with TK-10 it was > 10 µM (inactive); in the experiment with UACC-257 it was > 10 µM (inactive).
For the compound `CC[C@@]1(O)CC(OC2CC(N3CCOCC3)C(O)C(C)O2)c2c(O)c3c(c(O)c2[C@H]1O)C(=O)c1cccc(O)c1C3=O` (stereo partly specified), the GI50 in the experiment with 786-0 is 0.0407 µM (active); with ACHN, 0.0359 µM (active); with DU-145, 0.084 µM (active); in the experiment on EKVX, 0.318 µM (active); with HCT-15, 0.0573 µM; in the experiment with KM12 it was 0.182 µM (active). Moreover, the GI50 with MCF7 was 0.0293 µM (active); in the experiment with MDA-MB-231, 0.348 µM (active); in the experiment with MDA-N it was 0.131 µM (active); with NCI-H460, 0.00686 µM (active); in the experiment with NCI-H522, 0.166 µM (active); in the experiment on OVCAR-8, 0.0904 µM (active). The GI50 in the experiment on RPMI-8226 is 0.0897 µM (active); in the experiment on RXF 393, 0.196 µM (active); with SK-MEL-28, 0.378 µM (active); in the experiment on SNB-19, 0.127 µM (active); in the experiment on TK-10, 0.452 µM (active); in the experiment on UACC-257 it was 0.214 µM (active). The GI50 in the experiment on UACC-62 is 0.0667 µM (active).
For the compound `OCc1ccc2c(c1)CC1(Cc3ccc(/C=N/O)cc3C1)C2` (stereo unspecified), the GI50 in the experiment on 786-0 was 10.4 µM (inactive); in the experiment on ACHN it was 7.08 µM (inactive); in the experiment with CAKI-1 it was 7.8 µM (inactive); in the experiment with DU-145 it was 5.24 µM (inactive); with EKVX it was 6.73 µM (inactive); in the experiment with HCT-15, 1.16 µM. The GI50 in the experiment on KM12 was 1.29 µM (inactive); with MCF7, 2 µM (inactive); in the experiment with MDA-MB-231, 6.27 µM (inactive); in the experiment on MDA-N, 0.328 µM (active); with NCI-H460, 3.3 µM (inactive); in the experiment on NCI-H522, 2.08 µM (inactive). Further, the GI50 with OVCAR-8 is 4.45 µM (inactive); in the experiment on RPMI-8226 it was 2.25 µM (inactive); with SK-MEL-28 it was 6.82 µM (inactive); with SNB-19, 5.35 µM (inactive); in the experiment on TK-10 it was 13.4 µM (inactive); in the experiment with UACC-257 it was 2.19 µM (inactive). The GI50 in the experiment on UACC-62 is 3.24 µM (inactive).
For `CCn1c(=O)c2c3cc(OC(C)=O)ccc3oc2c2ccc(OC(C)=O)cc21`, the GI50 was 56.1 µM (inactive) in the experiment on 786-0; 24.8 µM (inactive) in the experiment with ACHN; 40 µM (inactive) in the experiment on CAKI-1; 36.1 µM (inactive) in the experiment on DU-145; 21 µM (inactive) with EKVX; 39.1 µM in the experiment with HCT-15. The GI50 was 40.1 µM (inactive) in the experiment with KM12; 35 µM (inactive) in the experiment with MCF7; 48.4 µM (inactive) in the experiment on MDA-MB-231; 33.3 µM (inactive) in the experiment with MDA-N; 21.8 µM (inactive) in the experiment on NCI-H460; 39.1 µM (inactive) in the experiment on NCI-H522. For the same compound, the GI50 in the experiment on OVCAR-8 is 30.8 µM (inactive); in the experiment with RXF 393, 37.2 µM (inactive); with SK-MEL-28 it was 49 µM (inactive); in the experiment on SNB-19 it was 46.9 µM (inactive); in the experiment on TK-10, 29.5 µM (inactive); with UACC-257, 55.1 µM (inactive). Also, in the experiment on UACC-62, the GI50 was 21.7 µM (inactive).
As to `CC1CC(C(=O)OC2OC(COC3OC(CO)C(OC4OC(C)C(O)C(O)C4O)C(O)C3O)C(O)C(O)C2O)C2CCC3(C)C(=CCC4(C)C3CCC3C(C)(CO)C(O)C(O)CC34C)C2C1C` (stereo unspecified), the GI50 in the experiment with 786-0 is 21 µM (inactive); in the experiment with ACHN, > 10 µM (inactive); in the experiment on CAKI-1 it was > 100 µM (inactive); with DU-145, 33.5 µM (inactive); in the experiment on EKVX, > 10 µM (inactive); with HCT-15 it was > 100 µM. In addition, the GI50 in the experiment with KM12 was 17.9 µM (inactive); in the experiment on MCF7, 23.7 µM (inactive); in the experiment on MDA-MB-231, 17.9 µM (inactive); in the experiment with MDA-N, 19.5 µM (inactive); with NCI-H460 it was 20.7 µM (inactive); with NCI-H522, 13.7 µM (inactive). For the same compound, the GI50 is 17.4 µM (inactive) with OVCAR-8; 21.4 µM (inactive) with RPMI-8226; 17 µM (inactive) in the experiment on SK-MEL-28; 17.4 µM (inactive) in the experiment with SNB-19; > 100 µM (inactive) in the experiment with TK-10; > 10 µM (inactive) in the experiment on UACC-257. The GI50 in the experiment with UACC-62 was 17.7 µM (inactive).
For the compound `S=C1NCCN1C(=S)Nc1ccccc1`, the GI50 with 786-0 is > 100 µM (inactive); in the experiment on ACHN, > 100 µM (inactive); with CAKI-1 it was 46.8 µM (inactive); with DU-145 it was > 100 µM (inactive); with EKVX, 33.9 µM (inactive); in the experiment on HCT-15 it was 68.9 µM. Further, the GI50 in the experiment on KM12 is 49.9 µM (inactive); in the experiment on MCF7, > 100 µM (inactive); in the experiment on MDA-MB-231, > 100 µM (inactive); in the experiment with MDA-N, > 100 µM (inactive); in the experiment with NCI-H460, 89.5 µM (inactive); in the experiment with NCI-H522, 60.8 µM (inactive). The GI50 in the experiment with OVCAR-8 was > 100 µM (inactive); in the experiment on RXF 393 it was 10.5 µM (inactive); in the experiment with SK-MEL-28, 56.2 µM (inactive); in the experiment with TK-10, 95.9 µM (inactive); in the experiment with UACC-257, 96.2 µM (inactive); in the experiment with UACC-62 it was 96.8 µM (inactive).
Consider `CC1(C)[C@@H](Cn2cnc3c(N)ncnc32)CC[C@@]1(C)CO`, for which the GI50 was > 100 µM (inactive) in the experiment on 786-0; 81.5 µM (inactive) in the experiment on ACHN; > 100 µM (inactive) in the experiment with CAKI-1; > 100 µM (inactive) with DU-145; > 100 µM (inactive) in the experiment on EKVX; 51.1 µM in the experiment with HCT-15. Also, the GI50 was 27.4 µM (inactive) in the experiment with KM12; 74.1 µM (inactive) in the experiment with MCF7; > 100 µM (inactive) in the experiment with MDA-MB-231; 50 µM (inactive) with MDA-N; > 100 µM (inactive) in the experiment with NCI-H460; 41.3 µM (inactive) with NCI-H522. Further, the GI50 in the experiment with OVCAR-8 is > 100 µM (inactive); with RXF 393, > 100 µM (inactive); in the experiment on SK-MEL-28 it was > 100 µM (inactive); in the experiment with SNB-19, > 100 µM (inactive); in the experiment on TK-10, > 100 µM (inactive); in the experiment with UACC-257, 67.1 µM (inactive). Besides, the GI50 with UACC-62 was 32 µM (inactive).
For the compound `O=c1cnn(C2OC(CO)C(O)C(F)C2O)c(=O)[nH]1` (stereo unspecified), the GI50 with 786-0 is > 100 µM (inactive); in the experiment on ACHN, > 100 µM (inactive); in the experiment with CAKI-1 it was > 100 µM (inactive); in the experiment on DU-145, > 100 µM (inactive); in the experiment on EKVX, > 100 µM (inactive); in the experiment on HCT-15, > 100 µM. The GI50 with KM12, with MCF7, in the experiment with MDA-MB-231, with MDA-N, in the experiment with NCI-H460 and in the experiment with NCI-H522 was > 100 µM (inactive) throughout. The GI50 in the experiment on OVCAR-8, in the experiment with RPMI-8226, in the experiment on SK-MEL-28, in the experiment on SNB-19, in the experiment with TK-10 and in the experiment with UACC-257 was > 100 µM (inactive) each time. Also, the GI50 in the experiment on UACC-62 was > 100 µM (inactive).
Turning to `CCC[C@H](O)[C@@H](CNc1cc(NC(C)=O)nc(NC(C)=O)n1)N(Cc1ccccc1)Cc1ccccc1`, the GI50 in the experiment on 786-0 is 17.7 µM (inactive); with ACHN it was 19.8 µM (inactive); in the experiment on CAKI-1, 18.2 µM (inactive); with DU-145, 61.9 µM (inactive); with EKVX, 12.1 µM (inactive); with HCT-15, 31.7 µM. Besides, the GI50 in the experiment with KM12 is 11.1 µM (inactive); in the experiment on MCF7, 8.79 µM (inactive); in the experiment on MDA-MB-231, 49.9 µM (inactive); with MDA-N, 47 µM (inactive); with NCI-H460, 21.8 µM (inactive); in the experiment with NCI-H522, 8.75 µM (inactive). Besides, the GI50 in the experiment with OVCAR-8 was 13.7 µM (inactive); in the experiment on RPMI-8226, 46.2 µM (inactive); in the experiment on SK-MEL-28, 42.9 µM (inactive); in the experiment on SNB-19, 39.3 µM (inactive); in the experiment on TK-10 it was 20.3 µM (inactive); with UACC-257, 29.2 µM (inactive). Besides, in the experiment with UACC-62, the GI50 was 18.3 µM (inactive).
As to `C[C@]12CCC3c4ccc(O)cc4CC[C@H]3C1CC(=O)N(CCN1CCCC1)C2=O` (stereo partly specified), the GI50 is > 10 µM (inactive) with 786-0; > 10 µM (inactive) in the experiment on ACHN; > 10 µM (inactive) with CAKI-1; > 10 µM (inactive) in the experiment with DU-145; > 10 µM (inactive) in the experiment with EKVX; > 10 µM in the experiment on HCT-15. The GI50 in the experiment with KM12, in the experiment on MCF7, in the experiment with MDA-MB-231, in the experiment on MDA-N, with NCI-H460 and in the experiment on OVCAR-8 was > 10 µM (inactive) throughout. Further, the GI50 in the experiment with RPMI-8226, in the experiment on RXF 393, with SK-MEL-28, with SNB-19, in the experiment on TK-10 and in the experiment on UACC-257 was > 10 µM (inactive) each time. For the same compound, in the experiment with UACC-62, the GI50 was > 10 µM (inactive).
